{
  "source": "ChEMBL document CHEMBL3751755",
  "about": "“Developing steroidal aromatase inhibitors-an effective armament to win the battle against breast cancer” (Eur J Med Chem, 2015)",
  "key": {"Aromatase [1]": {"target": "T1, Aromatase (Homo sapiens, UniProt P11511)", "T1 sequence (P11511 whole entry)": "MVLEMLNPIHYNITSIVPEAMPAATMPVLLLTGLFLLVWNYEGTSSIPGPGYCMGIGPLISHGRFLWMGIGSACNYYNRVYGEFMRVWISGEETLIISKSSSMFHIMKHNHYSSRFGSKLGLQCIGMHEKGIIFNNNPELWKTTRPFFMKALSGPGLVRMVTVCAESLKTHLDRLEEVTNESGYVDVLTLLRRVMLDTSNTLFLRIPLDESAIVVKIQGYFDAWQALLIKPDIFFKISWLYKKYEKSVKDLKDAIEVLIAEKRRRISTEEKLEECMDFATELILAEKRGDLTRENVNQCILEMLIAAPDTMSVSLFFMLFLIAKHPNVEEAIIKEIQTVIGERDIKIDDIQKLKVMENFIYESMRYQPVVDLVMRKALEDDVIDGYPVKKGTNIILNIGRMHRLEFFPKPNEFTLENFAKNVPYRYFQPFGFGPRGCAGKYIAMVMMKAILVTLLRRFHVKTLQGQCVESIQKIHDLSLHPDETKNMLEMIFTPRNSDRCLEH", "assay": "Inhibition of human aromatase extracted from placental microsomes using [1beta,2beta-3H]androstenedione as substrate"}, "Aromatase [2]": {"target": "T1, Aromatase", "assay": "Inhibition of human aromatase extracted from placental microsomes using [1beta-3H]androstenedione as substrate after 20 mins"}, "Aromatase [3]": {"target": "T1, Aromatase", "assay": "Inhibition of human aromatase extracted from placental microsomes using 4-[14C]androstenedione/androstenedione as substrate assessed as estrogen formation after 30 mins in NADPH-generating system", "settings": "0.5 h"}, "Aromatase [4]": {"target": "T2, Aromatase (Rattus norvegicus, UniProt P22443)", "T2 sequence (P22443 whole entry)": "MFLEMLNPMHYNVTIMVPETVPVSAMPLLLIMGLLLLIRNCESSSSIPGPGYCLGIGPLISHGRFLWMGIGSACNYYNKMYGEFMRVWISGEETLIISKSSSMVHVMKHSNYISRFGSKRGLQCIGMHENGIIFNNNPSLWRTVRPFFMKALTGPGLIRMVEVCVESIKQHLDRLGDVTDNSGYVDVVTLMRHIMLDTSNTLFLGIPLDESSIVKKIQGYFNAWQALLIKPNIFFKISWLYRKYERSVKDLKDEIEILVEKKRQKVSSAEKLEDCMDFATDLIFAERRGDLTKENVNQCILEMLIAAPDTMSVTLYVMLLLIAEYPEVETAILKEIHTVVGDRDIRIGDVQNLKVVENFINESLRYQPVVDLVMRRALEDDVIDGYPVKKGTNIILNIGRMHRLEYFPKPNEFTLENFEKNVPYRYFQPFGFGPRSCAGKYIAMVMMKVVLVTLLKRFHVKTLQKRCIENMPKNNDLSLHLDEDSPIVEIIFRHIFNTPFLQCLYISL", "assay": "Inhibition of rat aromatase extracted from PMSG-primed ovarian fraction using 4-[14C]androstenedione/androstenedione as substrate assessed as estrogen formation after 30 mins in NADPH-generating system", "settings": "0.5 h"}, "Aromatase [5]": {"target": "T1, Aromatase", "assay": "Time dependent inhibition of human aromatase extracted from placental microsomes using [1beta,2beta-3H]-testosterone as substrate after 10 mins by scintillation counting analysis"}, "Aromatase [6]": {"target": "T1, Aromatase", "assay": "Inhibition of human aromatase extracted from placental microsomes using [1beta,2beta-3H]testosterone as substrate measured at 7 to 21 mins by scintillation counting analysis"}, "Aromatase [7]": {"target": "T1, Aromatase", "assay": "Inhibition of human aromatase extracted from placental microsomes"}, "HeLa": {"test_system": "HeLa", "assay": "Cytotoxicity against human HeLa cells after 48 hrs by MTT assay", "type": "functional, cell-based"}, "[8]": {"assay": "Cytotoxicity against human PC3 cells after 48 hrs by MTT assay", "type": "functional, cell-based", "settings": "PC-3, 48 h"}, "Aromatase [9]": {"target": "T2, Aromatase", "assay": "Inhibition of aromatase in denucleated ovarian fraction extracted from PMSG pretreated Wistar rat using testosterone as substrate at 10 uM by radioimmuno assay"}, "Aromatase [10]": {"target": "T1, Aromatase", "assay": "Inhibition of human aromatase extracted from placental microsomes using [1-3H]androstenedione as substrate at […]"}, "Aromatase [11]": {"target": "T1, Aromatase", "assay": "Inhibition of aromatase (unknown origin) at 5 uM relative to control"}, "Aromatase [12]": {"target": "T1, Aromatase"}, "Aromatase [13]": {"target": "T1, Aromatase", "assay": "Inhibition of human aromatase extracted from placental microsomes using [1-3H]androstenedione as substrate"}, "Aromatase [14]": {"target": "T2, Aromatase", "assay": "Inhibition of rat aromatase extracted from ovarian fraction using testosterone as substrate"}, "Aromatase [15]": {"target": "T1, Aromatase", "assay": "Irreversible inhibition of human aromatase extracted from placental microsomes by double reciprocal plot analysis in presence of [1beta,2beta-3H]androstenedione"}, "Aromatase [16]": {"target": "T1, Aromatase", "assay": "Inhibition of human aromatase extracted from placental microsomes using [1beta,2beta-3H]androstenedione as substrate after 10 mins"}, "Aromatase [17]": {"target": "T1, Aromatase", "assay": "Inhibition of aromatase (unknown origin) at 50 uM"}},
  "data": [
    {"smiles": "C[C@]12CC=C3[C@@H](CCC4=CC(=O)CC[C@@]43CCSCF)[C@@H]1CCC2=O", "values": [
      {"measurement": "IC50", "setting": "Aromatase [1]", "value": 50, "unit": "nM"}
    ]},
    {"smiles": "C[C@]12CC[C@H]3O[C@H]3[C@@H]1CC[C@@H]1[C@@H]2CC[C@]2(C)C(=O)CC[C@@H]12", "values": [
      {"measurement": "IC50", "setting": "Aromatase [2]", "value": 180, "unit": "nM"}
    ]},
    {"smiles": "C[C@]12C=CC(=O)C(O)=C1C=C[C@@H]1[C@@H]2CC[C@]2(C)C(=O)CC[C@@H]12", "values": [
      {"measurement": "inhibition (INH)", "setting": "Aromatase [3]", "value": 30, "unit": "%"},
      {"measurement": "inhibition (INH)", "setting": "Aromatase [4]", "value": 30, "unit": "%"}
    ]},
    {"smiles": "CS[C@]12C=CC(=O)C=C1CC[C@H]1[C@@H]3CC[C@H](O)[C@@]3(C)CC[C@@H]12", "values": [
      {"measurement": "Ki", "setting": "Aromatase [5]", "value": 610, "unit": "nM"}
    ]},
    {"smiles": "CC(=O)O[C@H]1CC[C@@]2(C)C(=C/C(=N\\OCCCn3ccnc3)[C@H]3[C@@H]4CC[C@H](OC(C)=O)[C@@]4(C)CC[C@@H]32)C1", "values": [
      {"measurement": "IC50", "setting": "Aromatase [6]", "value": 12000, "unit": "nM"}
    ]},
    {"smiles": "C[C@]12CC[C@H]3[C@@H](Cc4nn(Cc5ccccc5)c5c4[C@]3(C)CCC5=O)[C@@H]1CC[C@@H]2O", "values": [
      {"measurement": "IC50", "setting": "Aromatase [7]", "value": 245, "unit": "nM"}
    ]},
    {"smiles": "C=C1C[C@@H]2[C@H]([C@H](O)C[C@]3(C)C(=O)CC[C@@H]23)[C@@]2(C)C=CC(=O)C=C12", "values": [
      {"measurement": "IC50", "setting": "HeLa", "value": 16800, "unit": "nM"},
      {"measurement": "IC50", "setting": "[8]", "value": 24900, "unit": "nM"}
    ]},
    {"smiles": "C[C@]12CC[C@@H]3c4ccc(O)cc4CC[C@H]3[C@@H]1CC(=O)OC2", "values": [
      {"measurement": "inhibition at 10 µM", "setting": "Aromatase [9]", "value": 1.5, "unit": "%"}
    ]},
    {"smiles": "C[C@]12CCC(=O)C=C1C[C@@H](Sc1ccc(Cl)cc1)[C@@H]1[C@@H]2CC[C@]2(C)C(=O)CC[C@@H]12", "values": [
      {"measurement": "inhibition at […]", "setting": "Aromatase [10]", "value": 45, "unit": "%"}
    ]},
    {"smiles": "CC(=O)O[C@H]1CC[C@@]2(C)C(=CC[C@H]3C(CC#N)[C@@](C)(CBr)CC[C@@H]32)C1", "note": "(stereo partly drawn)", "values": [
      {"measurement": "inhibition at 5 µM", "setting": "Aromatase [11]", "value": 19.4, "unit": "%"}
    ]},
    {"smiles": "C[C@]12C=CC(=O)C=C1C=C(CCc1ccccc1)[C@@H]1[C@@H]2CC[C@]2(C)C(=O)CC[C@@H]12", "values": [
      {"measurement": "Ki", "setting": "Aromatase [12]", "value": 172, "unit": "nM"}
    ]},
    {"smiles": "C[C@]12CC[C@H]3[C@@H](/C(=N/OCCCn4ccnc4)C=C4C[C@@H](O)CC[C@@]43C)[C@@H]1CC[C@@H]2O", "values": [
      {"measurement": "IC50", "setting": "Aromatase [6]", "value": 3100, "unit": "nM"}
    ]},
    {"smiles": "C=C1C=C2CC[C@@H]3[C@H](CC[C@]4(C)C(=O)CC[C@@H]34)[C@@]2(CO)CC1", "values": [
      {"measurement": "inhibition (INH)", "setting": "Aromatase [13]", "value": 80, "unit": "%"}
    ]},
    {"smiles": "C[C@]12CC[C@H]3[C@@H](Cc4n[nH]c5c4[C@]3(C)CCC5=O)[C@@H]1CC[C@@H]2O", "values": [
      {"measurement": "IC50", "setting": "Aromatase [7]", "value": 236, "unit": "nM"}
    ]},
    {"smiles": "C[C@]12CCC(=O)C=C1CC[C@@H]1[C@@H]2CC[C@@]2(C)[C@H]1CC[C@@]2(O)Cc1ccccn1", "values": [
      {"measurement": "inhibition (INH)", "setting": "Aromatase [14]", "value": 51.5, "unit": "%"}
    ]},
    {"smiles": "C[C@]12CC[C@H]3[C@@H](CCC4=CC(=O)CC[C@@]43S)[C@@H]1CC[C@@H]2O", "values": [
      {"measurement": "Ki", "setting": "Aromatase [15]", "value": 106, "unit": "nM"}
    ]},
    {"smiles": "C[C@]12CCC(=O)C(SCCl)=C1CC[C@@H]1[C@@H]2CC[C@]2(C)C(=O)CC[C@@H]12", "values": [
      {"measurement": "IC50", "setting": "Aromatase [16]", "value": 940, "unit": "nM"}
    ]},
    {"smiles": "C[C@]12CCC(=O)C=C1C(=O)C[C@@H]1[C@@H]2CC[C@]2(C)/C(=C/c3ccccn3)CC[C@@H]12", "values": [
      {"measurement": "inhibition at 50 µM", "setting": "Aromatase [17]", "value": 108, "unit": "%"}
    ]},
    {"smiles": "C[C@]12C=CC(=O)C=C1C=C[C@@H]1[C@@H]2CC[C@@]2(C)[C@H]1CC[C@@]2(O)Cc1ccccn1", "values": [
      {"measurement": "inhibition (INH)", "setting": "Aromatase [14]", "value": 51.5, "unit": "%"}
    ]},
    {"smiles": "C[C@]12C=CC(=O)C=C1C=C(c1ccccc1)[C@@H]1[C@@H]2CC[C@]2(C)C(=O)CC[C@@H]12", "values": [
      {"measurement": "Ki", "setting": "Aromatase [12]", "value": 2220, "unit": "nM"}
    ]},
    {"smiles": "C[C@]12CCC(=O)C(SCF)=C1CC[C@@H]1[C@@H]2CC[C@]2(C)C(=O)CC[C@@H]12", "values": [
      {"measurement": "IC50", "setting": "Aromatase [16]", "value": 800, "unit": "nM"}
    ]}
  ]
}
